Reference: PMC9105102, “Development and Biochemical Characterization of Self-Immolative Linker Containing GnRH-III-Drug Conjugates” (International Journal of Molecular Sciences, 2022)
Like-named read-outs stand apart in the source and are kept apart here.

How the values were obtained:
[1] = system: Panc-1 human pancreatic cancer cells; assay: cells; format: cell-based; details: for activity on Panc-1 cells lower than on A2780: ratio Panc-1 vs A2780
Procedure: (§1) For cultivation of A2780 human ovarian and Panc-1 human pancreatic cancer cells, RPMI-1640 medium with 10% FBS, L-glutamine and 1% Penicillin-Streptomycin were used. Cells were cultured in appropriate plastic flasks at 37 °C (humidified atmosphere, 5% CO2/95% air).
(§2) A set-up of 96-well plates was used to study the in vitro antiproliferative activity. Therefore, 5 × 10^3 cells in 100 µL complete medium were seeded to each well. After 24 h, complete medium was removed and cells were treated with 200 µL bioconjugate solution in serum-free medium (concentration range 0.0032–50 µM, control wells were treated with serum-free medium). Medium was taken out after 6 h treatment (PTX conjugates) or 24 h (Dau conjugates), replaced by complete medium and incubation was continued. To determine the cell viability, medium was removed after 72 h and 100 µL resazurin solution [45] (10% Tox-8 in FBS-free medium) was added to each well, followed by additional incubation of 2–3 h. A Tecan infinite 200 pro microplate reader (Tecan Group Ltd., Zürich, Switzerland) was used for fluorescence detection (λEx = 560 and λEm = 590 nm). Experiments were performed at least twice, using three parallels per concentration. The cell viability (and IC50 values) was calculated with GraphPad Prism using a nonlinear regression (sigmoidal dose-response).

[2] = system: A2780 human ovarian cancer cells; assay: cells; format: cell-based
Procedure: as §1, §2

[3] = molecular target: T1, GnRH-R (membranes of human pituitary) (Homo sapiens, UniProt P30968); assay: Radioligand competition assay, displacement of [125I]-GnRH-I-[6D-Trp] (triptorelin), human pituitary membranes; format: binding; details: for GnRH-R binding of the radiotracer affected: at concentrations up to 1 µM, unrelated peptides; for displacement of radio-labelled triptorelin from GnRH-Rs: human pituitary and human prostate cancer tissues, GnRH unrelated peptides
T1 construct: GnRH-Rs expressed on human pituitary and human prostate cancer cells; from tissue; host or cells: normal human pituitary (anterior lobe), autopsy; membrane homogenate
T1 sequence (P30968 1-328): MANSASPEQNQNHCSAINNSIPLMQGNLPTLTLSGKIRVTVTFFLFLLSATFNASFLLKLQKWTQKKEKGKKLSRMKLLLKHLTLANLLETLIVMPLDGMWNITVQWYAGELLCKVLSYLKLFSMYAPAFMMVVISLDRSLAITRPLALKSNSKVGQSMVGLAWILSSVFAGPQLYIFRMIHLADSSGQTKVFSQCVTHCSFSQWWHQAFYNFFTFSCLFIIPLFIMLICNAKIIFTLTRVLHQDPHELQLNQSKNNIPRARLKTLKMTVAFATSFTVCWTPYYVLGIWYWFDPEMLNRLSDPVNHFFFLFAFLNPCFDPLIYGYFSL
Procedure: (§3) A ligand competition assay with [^125I]-GnRH-I-[^6D-Trp] as radioligand was performed to examine the binding affinity of the GnRH-III-drug conjugates to GnRH-Rs expressed on human pituitary and human prostate cancer cells. Human prostate cancer cells were derived from patients at the time of initial surgical treatment, while tissue samples from normal human pituitary (anterior lobe) were obtained by autopsy. All subjects were informed and gave their consent for inclusion before they participated in the study. The preparation of the cell membranes was carried out according to the literature. The chloramines-T method was used to prepare radioiodinated GnRH-I agonist triptorelin which was purified by RP-HPLC [10, 38, 39, 47]. The displacement of [^125I]-GnRH-I-[^6D-Trp] was studied in an in vitro ligand competition assay to determine the binding affinities of the non-radio-labeled GnRH-III bioconjugates to GnRH-RI [10, 11, 38, 39]. Membrane homogenates containing […] protein were incubated in duplicate or triplicate with 60–80,000 cpm [^125I]-GnRH-I-[^6D-Trp] and rising concentration (1 pM—1 µM) of nonradioactive bioconjugates as competitors in a total volume of […] binding buffer. Protein concentration was determined by the method of Bradford using a Bio-Rad protein assay kit (Bio-Rad Laboratories, Hercules, CA, USA). The LIGAND-PC computerized curve-fitting program of Munson and Rodbard was used to determine the receptor binding characteristics and IC50 values.

[4] = molecular target: T2, GnRH-R (membranes of human prostate cancer specimens) (Homo sapiens, UniProt P30968); assay: Radioligand competition assay, displacement of [125I]-GnRH-I-[6D-Trp] (triptorelin), human prostate cancer membranes; details: mean ± SE of two to three determinations, read-out: IC50 Prostate Cancer, competitive inhibition of [125I][6D-Trp]-GnRH-I binding
T2 construct: GnRH-Rs expressed on human pituitary and human prostate cancer cells; from tissue; host or cells: human prostate cancer specimens from patients (surgery); membrane homogenate
T2 sequence (P30968 1-328): T1 sequence (P30968 1-328)
Procedure: as §3

[5] = Degradation of drug conjugates in presence of rat liver lysosomal homogenate (LC-MS); format: in vitro ADME; details: pH 5, 37 °C
Procedure: The preparation of the rat liver lysosomal homogenate was carried out as recently reported. A Qubit Protein Assay Kit (Thermo Fischer Scientific, Waltham, MA, USA) was used to examine the concentration of the lysosomal proteins.
Initially, a stock solution of the GnRH-III-Dau conjugates in water (5 µg/µL) was prepared. For the degradation reaction, the conjugates and the lysosomal homogenate were diluted together in 0.2 M NaOAc buffer (pH 5) to a concentration of 0.25 µg/µL each. These mixtures were kept at 37 °C and at distinct time points (5 min, 1 h, 2 h, 4 h, 8 h and 24 h), 15 µL of each sample were quenched with 2 µL acetic acid and analyzed by LC-MS (System I).
The GnRH-III-PTX conjugates were dissolved in DMSO to a concentration of 10 mM. The reaction was carried out in 0.2 M NaOAc buffer (pH 5) with 10 µM conjugate and 0.025 µg/mL lysosomal homogenate. The reaction mixtures were incubated at 37 °C and aliquots of 60 μL were taken at 5 min, 1 h, 2 h, 4 h, 8 h and 24 h and quenched with 5 μL of acetic acid. The analysis of the samples was performed by LC–MS (System-II).

[6] = Panc-1 cells, treatment 24 h (Dau conjugates) or 6 h (PTX compounds), viability at 72 h, mean ± SE of two to three determinations, read-out: Panc-1 IC50
[7] = A2780 cells, treatment 24 h (Dau conjugates) or 6 h (PTX compounds), viability at 72 h, mean ± SE of two to three determinations, read-out: A2780 IC50

CC(=O)O[C@H]1C(=O)[C@@]2(C)[C@H]([C@H](OC(=O)c3ccccc3)[C@]3(O)C[C@H](OC(=O)[C@H](O)[C@@H](NC(=O)c4ccccc4)c4ccccc4)C(C)=C1C3(C)C)[C@]1(OC(C)=O)CO[C@@H]1C[C@@H]2O [PTX, paclitaxel, reference compound]
IC50 ([1]; Homo sapiens, Panc-1 cells, treatment 24 h (Dau conjugates) or 6 h (PTX compounds), viability at 72 h, mean ± SE of two to three determinations, read-out: Panc-1 IC50): 170 ± 10 nM | IC50 ([2]; Homo sapiens, A2780 cells, treatment 24 h (Dau conjugates) or 6 h (PTX compounds), viability at 72 h, mean ± SE of two to three determinations, read-out: A2780 IC50): 20 ± 1 nM

COc1cccc2c1C(=O)c1c(O)c3c(c(O)c1C2=O)C[C@@](O)(C(C)=O)C[C@@H]3O[C@H]1C[C@H](N)[C@H](O)[C@H](C)O1 [Dau, daunorubicin, reference compound]
IC50 ([1]; Homo sapiens, PANC-1, read-out: Panc-1 IC50): 2430 ± 580 nM | activity on Panc-1 cells lower than on A2780 [1]: approximately 10 times | IC50 ([2]; Homo sapiens, A2780, read-out: A2780 IC50): 210 ± 10 nM

CCCC(=O)NCCCC[C@H](NC(=O)[C@H](Cc1c[nH]c2ccccc12)NC(=O)[C@H](Cc1c[nH]cn1)NC(=O)[C@@H]1CCC(=O)N1)C(=O)N[C@@H](Cc1c[nH]cn1)C(=O)N[C@@H](CC(=O)O)C(=O)N[C@@H](Cc1c[nH]c2ccccc12)C(=O)N[C@@H](CCCCN)C(=O)N1CCC[C@H]1C(=O)NCC(N)=O [Peptide I, GnRH-III-[^4Lys(Bu)]]
IC50 ([3]; human pituitary membranes, mean ± SE of two to three determinations, read-out: IC50 Pituitary, competitive inhibition of [125I][6D-Trp]-GnRH-I binding): 2.72 ± 0.95 nM | IC50 [4]: 3.11 ± 0.76 nM

bombesin [reference compound]
GnRH-R binding of the radiotracer affected [3]: unable to affect | displacement of radio-labelled triptorelin from GnRH-Rs [3]: not able to displace

CCCC(=O)NCCCC[C@H](NC(=O)[C@H](Cc1c[nH]c2ccccc12)NC(=O)[C@H](Cc1c[nH]cn1)NC(=O)[C@@H]1CCC(=O)N1)C(=O)N[C@@H](Cc1c[nH]cn1)C(=O)N[C@@H](CC(=O)O)C(=O)N[C@@H](Cc1c[nH]c2ccccc12)C(=O)N[C@@H](CCCCNC(=O)CCCC(=O)N[C@H](C(=O)N[C@@H](CCCNC(N)=O)C(=O)Nc1ccc(COC(=O)N(C)CCN(C)C(=O)O[C@@H](C(=O)O[C@H]2C[C@@]3(O)[C@@H](OC(=O)c4ccccc4)[C@@H]4[C@]5(OC(C)=O)CO[C@@H]5C[C@H](O)[C@@]4(C)C(=O)[C@H](OC(C)=O)C(=C2C)C3(C)C)[C@@H](NC(=O)c2ccccc2)c2ccccc2)cc1)C(C)C)C(=O)N1CCC[C@H]1C(=O)NCC(N)=O [compound 14]
IC50 [3]: 10.5 ± 2.01 nM | IC50 [4]: 10.7 ± 1.82 nM | detection of the diamine-PTX fragment ([5]; after 5 min of incubation): could be already detected | release of the free PTX ([5]; within 24 h): could not be detected | IC50 [1, 6]: 5030 ± 1910 nM | IC50 [2, 7]: 670 ± 70 nM

somatostatin [reference compound]
GnRH-R binding of the radiotracer affected [3]: unable to affect | displacement of radio-labelled triptorelin from GnRH-Rs [3]: not able to displace

CCCC(=O)NCCCC[C@H](NC(=O)[C@H]1Cc2ccccc2CN1C(=O)[C@@H]1CCC(=O)N1)C(=O)N[C@@H](Cc1c[nH]cn1)C(=O)N[C@@H](CC(=O)O)C(=O)N[C@@H](Cc1c[nH]c2ccccc12)C(=O)N[C@@H](CCCCNC(=O)CCCC(=O)N[C@H](C(=O)N[C@@H](CCCNC(N)=O)C(=O)Nc1ccc(COC(=O)N[C@H]2C[C@H](O[C@H]3C[C@](O)(C(C)=O)Cc4c(O)c5c(c(O)c43)C(=O)c3c(OC)cccc3C5=O)O[C@@H](C)[C@H]2O)cc1)C(C)C)C(=O)N1CCC[C@H]1C(=O)NCC(N)=O [compound 11, GnRH-III-[2ΔHis-3D-Tic,8Lys(glutaryl-Val-Cit-PABC-Dau)]]
receptor binding affinity of 11 relative to corresponding Val-Ala conjugate 13 ([3]; Val-Cit vs Val-Ala): twice as high | activity on Panc-1 cells lower than on A2780 [1]: more than 20 times

CCCC(=O)NCCCC[C@H](NC(=O)[C@H]1Cc2ccccc2CN1C(=O)[C@@H]1CCC(=O)N1)C(=O)N[C@@H](Cc1c[nH]cn1)C(=O)N[C@@H](CC(=O)O)C(=O)N[C@@H](Cc1c[nH]c2ccccc12)C(=O)N[C@@H](CCCCNC(=O)CCCC(=O)N[C@H](C(=O)N[C@@H](C)C(=O)Nc1ccc(COC(=O)N[C@H]2C[C@H](O[C@H]3C[C@](O)(C(C)=O)Cc4c(O)c5c(c(O)c43)C(=O)c3c(OC)cccc3C5=O)O[C@@H](C)[C@H]2O)cc1)C(C)C)C(=O)N1CCC[C@H]1C(=O)NCC(N)=O [compound 13]
activity on Panc-1 cells lower than on A2780 [1]: more than 20 times

CCCC(=O)NCCCC[C@H](NC(=O)[C@H](Cc1c[nH]c2ccccc12)NC(=O)[C@H](Cc1c[nH]cn1)NC(=O)[C@@H]1CCC(=O)N1)C(=O)N[C@@H](Cc1c[nH]cn1)C(=O)N[C@@H](CC(=O)O)C(=O)N[C@@H](Cc1c[nH]c2ccccc12)C(=O)N[C@@H](CCCCNC(=O)CCCC(=O)N[C@H]1C[C@H](O[C@H]2C[C@](O)(C(C)=O)Cc3c(O)c4c(c(O)c32)C(=O)c2c(OC)cccc2C4=O)O[C@@H](C)[C@H]1O)C(=O)N1CCC[C@H]1C(=O)NCC(N)=O [compound 23]
IC50 [3]: 9.7 ± 1.07 nM | IC50 [4]: 8.61 ± 1.08 nM | release of the smallest Dau-containing metabolite H-Lys(Dau-glutaryl)-OH ([5]; LC-MS): confirming the release | release of free Dau by lysosomal enzymes ([5]; up to 24 h, LC-MS): free Dau could not be detected | IC50 [1, 6]: > 100000 nM | IC50 [2, 7]: 67900 ± 25400 nM

CCCC(=O)NCCCC[C@H](NC(=O)[C@H](Cc1c[nH]c2ccccc12)NC(=O)[C@H](Cc1c[nH]cn1)NC(=O)[C@@H]1CCC(=O)N1)C(=O)N[C@@H](Cc1c[nH]cn1)C(=O)N[C@@H](CC(=O)O)C(=O)N[C@@H](Cc1c[nH]c2ccccc12)C(=O)N[C@@H](CCCCNC(=O)CCCC(=O)N(C)CCN(C)C(=O)O[C@@H](C(=O)O[C@H]1C[C@@]2(O)[C@@H](OC(=O)c3ccccc3)[C@@H]3[C@]4(OC(C)=O)CO[C@@H]4C[C@H](O)[C@@]3(C)C(=O)[C@H](OC(C)=O)C(=C1C)C2(C)C)[C@@H](NC(=O)c1ccccc1)c1ccccc1)C(=O)N1CCC[C@H]1C(=O)NCC(N)=O [compound 25, GnRH-III-[2His-3Trp,8Lys(glutaryl-diamine-PTX)]]
detection of the diamine-PTX fragment ([5]; even after 24 h of incubation): could not be detected | IC50 [1, 6]: > 100000 nM | IC50 [2, 7]: 41500 ± 9830 nM
